Assay results reported in ChEMBL document CHEMBL5727021, “Oxepan-2-yl-pyrazol-4-yl-heterocyclyl-carboxamide compounds and methods of use” (2018).

Target: Serine/threonine-protein kinase pim-1 (Homo sapiens, UniProt P11309)
Experiment: Biological Assay: Determination of the Pim kinase activity of a Formula I compound is possible by a number of direct and indirect detection methods. Certain exemplary compounds described herein were assayed for their Pim kinase binding activity, including isoforms Pim-1, Pim-2, andPim-3, (Example 901) and in vitro activity against tumor cells (Example 902).
Type: cell-based

Sequence of Serine/threonine-protein kinase pim-1 (P11309 whole entry, canonical isoform): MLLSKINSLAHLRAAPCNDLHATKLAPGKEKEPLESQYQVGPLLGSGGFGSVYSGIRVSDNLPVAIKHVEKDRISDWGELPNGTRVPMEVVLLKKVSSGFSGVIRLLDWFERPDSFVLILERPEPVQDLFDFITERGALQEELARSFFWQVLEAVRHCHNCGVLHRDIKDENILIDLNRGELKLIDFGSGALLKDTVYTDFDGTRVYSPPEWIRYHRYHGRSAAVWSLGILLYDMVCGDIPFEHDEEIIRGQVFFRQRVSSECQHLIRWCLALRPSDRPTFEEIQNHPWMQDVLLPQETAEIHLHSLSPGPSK

Ki: 0.047 nM
SMILES: N[C@@H]1CC[C@@H](c2c(NC(=O)c3csc(-c4c(F)cccc4F)n3)cnn2CC(F)F)OC[C@H]1F
